Measured values reported in patent publication US6511963B1 (priority 1992, dated 2003).
“And” between values parts separate entries of the source, which are not always exact repeats. Equal entries are not always repeated. Where two headings read alike, the source gives them in different places. Peptide text beside a SMILES is read from it.

How the values were obtained:
[1] = target: NMDA receptor; set-up: species or system rat; conditions: read-out: EC50 of Gly, [3H]MK-801 binding
[2] = test system: NMDA receptor; assay type: binding, rat; conditions: for IC50: read-out: Spermine IC
[3] = target: T1, NMDA receptor (Rattus norvegicus, UniProt P35439+Q00960); experiment: biochemical; assay type: binding; conditions: for Emax: read-out: % Sti
T1 construct: other: test compound in the absence of spermine; concentration at 50% of maximum stimulation; % Sti; spermine = 100; other: with and without spermine; absence of spermine; % STI; absence
T1 sequence (Q00960 27-1482, other chains not shown): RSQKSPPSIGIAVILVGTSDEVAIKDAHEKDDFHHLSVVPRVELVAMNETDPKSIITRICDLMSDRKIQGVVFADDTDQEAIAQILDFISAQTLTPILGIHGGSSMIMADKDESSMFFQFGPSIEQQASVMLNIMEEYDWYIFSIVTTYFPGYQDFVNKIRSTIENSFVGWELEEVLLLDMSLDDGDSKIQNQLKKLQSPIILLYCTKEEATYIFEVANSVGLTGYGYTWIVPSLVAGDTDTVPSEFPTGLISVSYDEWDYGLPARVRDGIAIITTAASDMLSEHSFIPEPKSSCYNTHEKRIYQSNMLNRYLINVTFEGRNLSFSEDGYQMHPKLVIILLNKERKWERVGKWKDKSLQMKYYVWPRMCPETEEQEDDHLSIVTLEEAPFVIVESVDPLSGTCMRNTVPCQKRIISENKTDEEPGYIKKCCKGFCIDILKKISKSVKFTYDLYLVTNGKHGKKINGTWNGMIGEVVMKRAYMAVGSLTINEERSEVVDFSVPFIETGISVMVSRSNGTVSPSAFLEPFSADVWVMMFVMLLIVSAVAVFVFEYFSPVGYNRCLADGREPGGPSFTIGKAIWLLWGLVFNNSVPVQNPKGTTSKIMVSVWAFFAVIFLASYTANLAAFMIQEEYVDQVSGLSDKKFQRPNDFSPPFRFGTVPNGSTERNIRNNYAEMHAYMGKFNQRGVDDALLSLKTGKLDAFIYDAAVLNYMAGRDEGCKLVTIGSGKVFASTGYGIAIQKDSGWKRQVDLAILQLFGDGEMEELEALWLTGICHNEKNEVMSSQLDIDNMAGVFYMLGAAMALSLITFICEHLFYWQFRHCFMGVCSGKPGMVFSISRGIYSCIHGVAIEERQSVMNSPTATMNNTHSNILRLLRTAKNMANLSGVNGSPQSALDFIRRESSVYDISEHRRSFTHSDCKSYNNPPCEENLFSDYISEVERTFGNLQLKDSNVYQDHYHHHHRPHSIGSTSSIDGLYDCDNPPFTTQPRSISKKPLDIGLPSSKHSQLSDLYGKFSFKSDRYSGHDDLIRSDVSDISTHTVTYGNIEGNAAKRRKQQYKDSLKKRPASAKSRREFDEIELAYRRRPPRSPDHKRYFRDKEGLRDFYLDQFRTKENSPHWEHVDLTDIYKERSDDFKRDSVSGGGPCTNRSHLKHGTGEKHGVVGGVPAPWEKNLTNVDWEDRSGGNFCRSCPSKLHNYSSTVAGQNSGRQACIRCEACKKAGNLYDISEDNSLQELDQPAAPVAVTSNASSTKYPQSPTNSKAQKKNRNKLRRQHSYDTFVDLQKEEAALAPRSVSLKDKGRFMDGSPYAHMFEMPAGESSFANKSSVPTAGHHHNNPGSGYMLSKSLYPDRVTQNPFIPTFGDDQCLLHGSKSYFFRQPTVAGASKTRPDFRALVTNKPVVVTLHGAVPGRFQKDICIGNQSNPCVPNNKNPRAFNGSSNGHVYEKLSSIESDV

| Compound | % Inh [2] [%] | Emax [3] [%] | % Sti [3] [%] | further results |
| --- | --- | --- | --- | --- |
| NCC(=O)O [Gly, glycine] |  |  |  | EC50 [1]: 0.056 µM and 0.058 µM |
| CC[C@H](C)[C@H](N)C(=O)N[C@@H](CCCNC(=N)N)C(=O)N[C@@H](CCC(=O)O)C(=O)N[C@@H](CCCCN)C(=O)N[C@@H](CO)C(=O)N[C@@H](CC(N)=O)C(N)=O [Glul4-Con-G(12-17), IREKSN] | 0 | 30 |  | inhibition of spermine-induced [3H]MK-801 binding [2]: no inhibition; stimulation of [3H]MK-801 binding in the absence of spermine [3]: stimulated |
| CC[C@H](C)[C@H](NC(=O)[C@H](CC(C)C)NC(=O)[C@@H](CCC(=O)O)NC(=O)[C@H](CCC(N)=O)NC(=O)[C@H](CC(N)=O)NC(=O)[C@@H](CCC(=O)O)NC(=O)[C@H](CCC(N)=O)NC(=O)[C@H](CC(C)C)NC(=O)[C@@H](CCC(=O)O)NC(=O)[C@@H](CCC(=O)O)NC(=O)[C@@H](CCC(=O)O)NC(=O)CN)C(=O)N[C@@H](CCCNC(=N)N)C(=O)N[C@H](CCC(=O)O)C(=O)N[C@@H](CCCCN)C(=O)N[C@@H](CO)C(=O)N[C@@H](CC(N)=O)C(N)=O [D-Glu3,4,7,10,14-Con-G, GdEdEdELQdENQdELIRdEKSN] | 0 | 30 |  | inhibition of spermine-induced [3H]MK-801 binding [2]: no inhibition; stimulation of [3H]MK-801 binding in the absence of spermine [3]: stimulated |
| CC[C@H](C)[C@H](NC(=O)[C@H](CC(C)C)NC(=O)[C@H](CC(C(=O)O)C(=O)O)NC(=O)[C@H](CCC(N)=O)NC(=O)[C@H](CC(N)=O)NC(=O)[C@H](CC(C(=O)O)C(=O)O)NC(=O)[C@H](CCC(N)=O)NC(=O)[C@H](CC(C)C)NC(=O)[C@H](CC(C(=O)O)C(=O)O)NC(=O)[C@H](COP(=O)(O)O)NC(=O)[C@H](CCC(=O)O)NC(=O)CN)C(=O)N[C@@H](CCCNC(=N)N)C(=O)N[C@@H](CC(C(=O)O)C(=O)O)C(=O)N[C@@H](CCCCN)C(=O)N[C@@H](CO)C(=O)N[C@@H](CC(N)=O)C(N)=O [Ser(p)3-Con-G, GES(p)gLQgNQgLJRgKSN] | 34 ± 2.3 |  |  | % INH [2]: 34 ± 2.3%; % STI ([3]; forebrain membranes): 68 ± 8.4%; % Sti ([3]; forebrain membranes): 68 ± 8.4% |
| CC[C@H](C)[C@H](NC(=O)[C@H](CCC(N)=O)NC(=O)[C@H](CO)NC(=O)[C@@H](NC(=O)[C@H](CC(N)=O)NC(=O)[C@H](CO)NC(=O)[C@H](CCC(N)=O)NC(=O)[C@H](CC(C)C)NC(=O)[C@H](CC(C(=O)O)C(=O)O)NC(=O)[C@H](CC(C(=O)O)C(=O)O)NC(=O)[C@H](CCC(=O)O)NC(=O)CN)C(C)C)C(=O)N[C@@H](CCCNC(=N)N)C(=O)N[C@@H](C)C(=O)N[C@@H](CCCCN)C(=O)N[C@@H](CO)C(=O)N[C@@H](CC(N)=O)C(N)=O [310 helix ConG] (HELM PEPTIDE1{G.E.[O=C(O)C(C[C@H](N[*:1])C(=O)[*:2])C(=O)O].[O=C(O)C(C[C@H](N[*:1])C(=O)[*:2])C(=O)O].L.Q.S.N.V.S.Q.I.R.A.K.S.N.[am]}$$$$V2.0) | 25 | 0 |  | IC50 [2]: 20 µM |
| Y(oMe)-GEggLQgNQgLIRgKSN (YGEXXLQXNQXLIRXKSN; O-methyl tyrosine) [Tyr(oMe)^o-Con-G] | 0 |  | 0 |  |
| CC[C@H](C)[C@H](NC(=O)[C@H](CC(C)C)NC(=O)[C@H](CO)NC(=O)[C@H](CCC(N)=O)NC(=O)[C@H](CC(N)=O)NC(=O)[C@H](CC(C(=O)O)C(=O)O)NC(=O)[C@H](CCC(N)=O)NC(=O)[C@H](CC(C)C)NC(=O)[C@H](CC(C(=O)O)C(=O)O)NC(=O)[C@H](CC(C(=O)O)C(=O)O)NC(=O)[C@H](CCC(=O)O)NC(=O)CN)C(=O)N[C@@H](CCCNC(=N)N)C(=O)N[C@@H](CC(C(=O)O)C(=O)O)C(=O)N[C@@H](CCCCN)C(=O)N[C@@H](CO)C(=O)N[C@@H](CC(N)=O)C(N)=O [Ser10-Con-G, GEggLQgNQSLIRgKSN] | 100 | 0 |  | IC50 [2]: 1.8 ± 0.2 µM |
| Ac-GEggLQgNQgLIRgKSN [Ac-Con-G] | 0 |  | 0 | activity, inhibitory or stimulatory [3]: no apparent activity |
| QELIREKSN [Glul0,14-Con-G(9-17)] | 0 |  | 0 |  |
| GEggLQgNQgLIRgKSN-OH [Con-G-OH] | 0 |  | 0 | activity, inhibitory or stimulatory [3]: no activity |
| GEgELQgNQgLJRgKSN (GEXELQXNQXLIRXKSN; gamma-carboxyglutamate residues) [Glu4-Con-G] | 0 |  | 0 |  |
